According to patent US20070275382A1, “Biomarkers for the Efficacy of Somatostatin Analogue Treatment” (priority 2003, published 2007):
Several values for one entry are separate records, joined by “and”; a condition that tells them apart may be missing. Equal values may be shown once. *1 amine or outer side, *2 acyl side, *3 side chain or, on linkers, in order; H or OH if unused. Where a SMILES comes first, the peptide text is derived from it. Side-chain parts run from the residue outwards. [ ]: non-standard residue; d: D form. The star is where a group is joined. Ethylenediamine = C(CN[*:2])N[*:1]; Hyp = O=C(O)[CH]1C[CH](O)CN1; Phg = N[CH](C(=O)O)c1ccccc1; CO = O=C([*:1])[*:2]; Bn = c1ccc(C*)cc1

Test system: Pituitary gland
Assay: Microarray gene expression profiling (HG-U95A), pituitary
Assay type: in vivo, cynomolgus monkeys
Description: Origin of tissue and processing. Male and female cynomolgus monkeys received subcutaneously pasireotide (100 μg/animal/day) or the vehicle for 14 days. On day 15, all animals were sacrificed and tissues for RNA extraction were immediately snap-frozen and kept at −80° C. until processing.
RNA expression profiling was conducted by means of the HG-U95A gene expression probe array (Affymetrix; Santa Clara, Calif. USA), containing more than 12,600 probe sets interrogating primarily full-length human genes and also some control probe sets. The experiment was conducted according to the recommendations of the manufacturer. Briefly, total RNA was obtained by acid guanidinium thiocyanate-phenol-chloroform extraction (Trizol®, Invitrogen Life Technologies, San Diego, Calif. USA) from each frozen tissue section. The total RNA was then purified on an affinity resin (Rneasy®, Qiagen) and quantified. Double stranded cDNA was synthesized with a starting amount of approximately 5 μg full-length total RNA using the Superscript® Choice System (Invitrogen Life Technologies, Carlsbad, Calif. USA) in the presence of a T7-(dT)24 DNA oligonucleotide primer. Following synthesis, the cDNA was purified by phenol/chloroform/isoamyl alcohol extraction and ethanol precipitation. The purified cDNA was then transcribed in vitro using the BioArray® High Yield RNA Transcript Labeling Kit (ENZO, Farmingdale, N.Y. USA) in the presence of biotinylated ribonucleotides form biotin labelled cRNA. The labelled cRNA was then purified on an affinity resin (Rneasy®, Qiagen), quantified and fragmented. An amount of approximately 10 μg labelled cRNA was hybridized for 16 hours at 45° C. to an expression probe array. The array was then washed and stained twice with streptavidin-phycoerythrin (Molecular Probes,) using the GeneChip® Fluidics Workstation 400 (Affymetrix, Santa Clara, Calif. USA). The array was then scanned twice using a confocal laser scanner (GeneArray® Scanner, Agilent, Palo Alto, Calif. USA) resulting in one scanned image. This resulting “.dat-file” was processed using the MAS4 program (Affymetrix) into a “.cel-file”. The “.cel file” was captured and loaded into the Affymetrix GeneChip® Laboratory Information Management System (LIMS). The LIMS database is connected to a UNIX Sun Solaris server through a network filing system that allows for the average intensities for all probes cells (CEL file) to be downloaded into an Oracle database (NPGN). Raw data was converted to expression levels using a “target intensity” of 150. The data were evaluated for quality control and loaded in the GeneSpring® software 4.2.4 (Silicon Genetics, Calif. USA) for analysis.
On the human Affymetrix HGU95Av2 chip, probe sets for individual genes contain 20 oligonucleotide pairs, each composed of a “perfect match” 25-mer and a “mismatch” 25-mer differing from the “perfect” match oligonucleotide at a single base. After probe labelling, hybridization, and laser scanning, the expression level was estimated by averaging the differences in signal intensity measured by oligonucleotide pairs of a given probe (AvgDiff value). The fold changes and directions were calculated for selected genes, from the differences of the AvgDiff values between controls and treated.
To identify genes that were impacted by pasireotide, the dataset was initially filtered to exclude in a first wave of analysis, genes whose values were systematically in the lower expression ranges where the experimental noise is high (at least 80 in a number of experiments corresponding to the smallest number of replicas of any experimental point). In a second round of selection a threshold p-value of 0.05 (based on a t-test) identified differences between treated and control based on a two component error model (Global Error Model) and, whenever possible, with a stepdown correction for multi-hypothesis testing (Benjamini and Hochberg false discovery rate). […]

[1] = ↑ vs control, 100 μg/animal/day s.c., 14 days

NCCCCC1NC(=O)C(Cc2c[nH]c3ccccc23)NC(=O)C(c2ccccc2)NC(=O)C2CC(OC(=O)NCCN)CN2C(=O)C(Cc2ccccc2)NC(=O)C(Cc2ccc(OCc3ccccc3)cc2)NC1=O (stereo not drawn) [Pasireotide, cyclo[4-(NH2—C2H4—NH—CO—O)Pro-Phg-DTrp-Lys-Tyr(4-Bzl)-Phe]] (cyclo(F[Hyp]([CO-Ethylenediamine])[Phg]WKY(Bn)); configuration not given here)
ATPase, H+/K+ exchanging, α polypeptide expression level, AvgDiff (range) (0.1 mg/animal/14 day): 20 | ATPase, Na+/K+ transporting, α 2 (+) polypeptide expression level, AvgDiff (range) (0.1 mg/animal/14 day): 184 (69 to 325) | ATPase, Na+/K+ transporting, β 3 polypeptide expression level, AvgDiff (range) (0.1 mg/animal/14 day): 610 (335 to 949) | BCL2-antagonist of cell death expression level, AvgDiff (range) (0.1 mg/animal/14 day): 69 (42 to 89) | BCL2-associated athanogene expression level, AvgDiff (range) (0.1 mg/animal/14 day): 318 (235 to 409) | Bax gamma expression level, AvgDiff (range) (0.1 mg/animal/14 day): 326 (221 to 448) | Cdk inhibitor 2C (p18, inhibits CDK4) expression level, AvgDiff (range) (0.1 mg/animal/14 day): 184 (140 to 229) | Cdk inhibitor 2D (p19, inhibits CDK4) expression level, AvgDiff (range) (0.1 mg/animal/14 day): 99 (83 to 118) | Cell division cycle 25B expression level, AvgDiff (range) (0.1 mg/animal/14 day): 162 (134 to 187) | Core-binding factor, runt domain, α subunit 2; translocated to, 1; cyclin D-related expression level, AvgDiff (range) (0.1 mg/animal/14 day): 491 (251 to 677) | Cyclin D3 expression level, AvgDiff (range) (0.1 mg/animal/14 day): 338 (202 to 446) | Cyclin F expression level, AvgDiff (range) (0.1 mg/animal/14 day): 74 (48 to 132) | Dual specificity phosphatase 8 expression level, AvgDiff (range) (0.1 mg/animal/14 day): 170 (67 to 238) | Forkhead box O3A expression level, AvgDiff (range) (0.1 mg/animal/14 day): 257 (186 to 324) | GLUR 2, precursor expression level, AvgDiff (range) (0.1 mg/animal/14 day): 59 (20 to 177) | GR expression level, AvgDiff (range) (0.1 mg/animal/14 day): 109 (51 to 215) | IGF-2 expression level, AvgDiff (range) (0.1 mg/animal/14 day): 70 (20 to 150) | IGFBP, acid labile subunit expression level, AvgDiff (range) (0.1 mg/animal/14 day): 83 (20 to 110) | IP-4-phosphatase, type 1, isoform b expression level, AvgDiff (range) (0.1 mg/animal/14 day): 177 (107 to 232) | K+ channel, subfamily K, member 3 (TASK) expression level, AvgDiff (range) (0.1 mg/animal/14 day): 26 (20 to 43) | K+ voltage-gated channel, Shab-related subfamily, member 1 expression level, AvgDiff (range) (0.1 mg/animal/14 day): 22 (20 to 31) | MAPKKK5 expression level, AvgDiff (range) (0.1 mg/animal/14 day): 278 (221 to 351) | Neuroblastoma-amplified protein expression level, AvgDiff (range) (0.1 mg/animal/14 day): 237 (201 to 258) | PI transfer protein, β expression level, AvgDiff (range) (0.1 mg/animal/14 day): 42 (34 to 50) | PI-3-kinase, catalytic, α polypeptide expression level, AvgDiff (range) (0.1 mg/animal/14 day): 21 (20 to 24) | PI-3-kinase, catalytic, δ polypeptide expression level, AvgDiff (range) (0.1 mg/animal/14 day): 34 (20 to 67) | PKC inhibitor expression level, AvgDiff (range) (0.1 mg/animal/14 day): 3,333 (2,339 to 3,878) and 3,332 (2,339 to 3,878) | PLC, γ 1 (formerly subtype 148) expression level, AvgDiff (range) (0.1 mg/animal/14 day): 40 (20 to 63) | PP 1, regulatory (inhibitor) subunit 5 expression level, AvgDiff (range) (0.1 mg/animal/14 day): 75 (60 to 90) | PTP, receptor type, T expression level, AvgDiff (range) (0.1 mg/animal/14 day): 101 (48 to 129) | Phosphatase and tensin homolog (mutated in multiple advanced cancers 1) expression level, AvgDiff (range) (0.1 mg/animal/14 day): 36 (20 to 63) | Programmed cell death 6 expression level, AvgDiff (range) (0.1 mg/animal/14 day): 635 (513 to 747) | Putative Ca++ transporting ATPase expression level, AvgDiff (range) (0.1 mg/animal/14 day): 101 (84 to 112) | RAB 5C, member RAS oncogene family expression level, AvgDiff (range) (0.1 mg/animal/14 day): 162 (109 to 212) | Rab geranylgeranyltransferase, α subunit expression level, AvgDiff (range) (0.1 mg/animal/14 day): 104 (70 to 172) | Rab geranylgeranyltransferase, βsubunit expression level, AvgDiff (range) (0.1 mg/animal/14 day): 284 (246 to 374) | S-phase response (cyclin-related) expression level, AvgDiff (range) (0.1 mg/animal/14 day): 129 (111 to 148) | SHB adaptor protein (a Src homology 2 protein) expression level, AvgDiff (range) (0.1 mg/animal/14 day): 38 (20 to 55) | SSTR3 expression level, AvgDiff (range) (0.1 mg/animal/14 day): 57 (20 to 90) | ANP (atrial natriuretic peptide precursor B) transcript fold change [1]: ↑ x2 | ATP(GTP)-binding protein transcript fold change [1]: protein ↑ x1.5 | ATPase, Ca++ transporting cardiac muscle, slow twitch 2 transcript fold change [1]: ↑ x1.5 | ATPase, Na+/K+ transporting, α 2(+) polypeptide transcript fold change [1]: polypeptide ↑ x2.5 | ATPase, Na+/K+ transporting, β 3 polypeptide transcript fold change [1]: polypeptide ↑ x2.5 | Adrenomedullin transcript fold change [1]: Adrenomedullin ↑ x2.5 | BCL2-antagonist of cell death transcript fold change [1]: cell death ↑ x2 | BCL2-associated athanogene transcript fold change [1]: athanogene ↑ x2 | BCL2/adenovirus E1B 19 kD-interacting protein 3 transcript fold change [1]: 3 ↑ x1.5 | Bax γ transcript fold change [1]: Bax γ ↑ x1.5 | Brain cannabinoid receptor 1 transcript fold change [1]: receptor 1 ↑ x2 | Butyrate response factor 2 (EGF-response factor 2) transcript fold change [1]: factor 2) ↑ x3 | CC chemokines STCP-1 transcript fold change [1]: STCP-1 ↑ x1.5 | Calcium/calmodulin-dependent protein kinase I transcript fold change [1]: kinase I ↑ x2.5 | Cdki2C (p18, inhibits CDK4) transcript fold change [1]: CDK4) ↑ x2 | Cdki2D (p19, inhibits CDK4) transcript fold change [1]: CDK4) ↑ x1.5 | Cell division cycle 25B transcript fold change [1]: ↑ x5 | Core-binding factor, runt domain, α subunit 2; translocated to, 1; cyclin D-related transcript fold change [1]: cyclin D-related ↑ x3 | Cyclin D3 transcript fold change [1]: Cyclin D3 ↑ x2.5 | Forkhead box H1 transcript fold change [1]: Forkhead box H1↑ x2 | G protein-coupled receptor, family C, group 5, member B transcript fold change [1]: group 5, member B ↑ x2 | G-protein coupled receptor 9 transcript fold change [1]: receptor 9 ↑ x2.5 | GABA-B R 1, isoform a precursor transcript fold change [1]: ↑ x1.5
